In patent publication US20050171116A1, “Enhancing the efficacy of tubercular drugs” (priority 2004, published 2005):

What was measured:
Staphylococci = test: Antibacterial activity in broth, culture growth after 24 hrs; type: cell-based
Escherichia coli = test: as above; type: cell-based
AFB = test: Sputum AFB test (Ziehl-Neelson stain) in pulmonary tuberculosis patients; type: in vivo, human
Experimental: Fifty four patients suffering from pulmonary tuberculosis were included in this study. Thirty patients were treated with four anti-tubercular drugs only. Twenty-four patients were treated with four anti-tubercular drugs and antioxidant drugs concomitantly.
Four antitubercular drugs were given by oral route to all 54 patients in doses and frequency as shown below for a period of 60 days. The dosage regime for the anti-microbial drugs is known in the art as “2EHRZ.” It is an oral daily capsule of rifampicin, a tablet of isoniazid, a tablet of Pyrizinamide, and a tablet of ethambutal.
Out of the total test population of fifty-four patients, twenty-four patients received, in addition to the above 2EHRZ regime, Factor Alpha tx for 60 days, administered daily, orally.
In both of the two groups, three sputum samples for each patient were collected and were analyzed for the presence of AFB after 15 days, after 30 days and after sixty days. Analysis was by the Ziehl-Neelson (hot) stain method. The reports were documented as positive for presence of bacilli & negative for absence of bacilli.
The first group (the control group) received Rifampicin, Isoniazid, Ethambutol and Pyrazinamide in daily oral doses mentioned above, on Out Patient Department (OPD) basis for 60 days. […]

[1] = tested on: sensitive strains of Mycobacterium Tuberculosis bacilli (MTB); test: Antibacterial efficacy in LJ medium, in vitro culture; type: cell-based
Pseudomonas = test: Antibacterial activity in broth, culture growth after 24 hrs; type: cell-based

Cc1c(C)c2c(c(C)c1O)CC[C@@](C)(CCC[C@H](C)CCC[C@H](C)CCCC(C)C)O2 [Factor Alpha tx, α-tocopherol] was tested, and the antibacterial activity (Staphylococci) was “has antibacterial activity”, the antibacterial activity (Escherichia coli) was “has antibacterial activity” and the “effect on sputum negativity of concurrent administration with routine anti tubercular agents” value (AFB) was “synergistic effects in augmenting sputum negativity”. For the same molecule, the antibacterial efficacy [1] was “effective” and the antibacterial activity (Pseudomonas) was “has antibacterial activity”.
